Data: US12162839B1, “4,5-bis(4-bromophenyl)-2-(4-bromophenyl)-1-hexyl-1H-imidazole as an antimicrobial compound” (KING FAISAL UNIVERSITY, priority 2023, dated 2024)

Assays:
Format in all cases: cell-based
Conditions in all cases: after 10, 20, 40 and 60 minutes at all dilutions 1:100, 1:200, 1:400, 1:800
Candida albicans = experiment: Antimicrobial testing by agar dilution, Candida albicans
Method: (§1) The antimicrobial properties of the 4,5-bis(4-bromophenyl)-2-(4-bromophenyl)-1-hexyl-1H-imidazole (5) were studied by the method of agar dilution. Test solutions of each compound were prepared in concentration of 1% using dimethylformamide as a solvent then they are diluted in physiological solution to obtain the final experimental dilutions 1:100, 1:200, 1:400, 1:800. The effect of these substances were compared with furacillin in a controllable study. The testing microbes used were gram positive bacteria Staphylococcus aureus, gram negative bacteria Escherichia coli, Pseudomonas aeruginosa and Candida albicans fungi were taken. The experiments used for this survey were meat-pentonlu agar (EPA) for cultivation of bacteria and Saburo environment for fungi. Each experiment used 1 ml of test solution on each plate 500 min. Add 2 drops of emulsified with microbes feel. All experimental samples were taken from the agar after 10, 20, 40, 60 minutes in the environment on the basis of Patrk planted. Bacteria were cultivated at a temperature of 37° C. for 1 day and the mushroom was kept in a thermostat for […] at a temperature of 28° C. in the. Then results were checked.

Escherichia coli = experiment: Antimicrobial testing by agar dilution, Escherichia coli
Method: as §1

Pseudomonas aeruginosa = experiment: Antimicrobial testing by agar dilution, Pseudomonas aeruginosa
Method: as §1

Staphylococcus aureus = experiment: Antimicrobial testing by agar dilution, Staphylococcus aureus
Method: as §1

Measured: inhibition activity (in words)

CCCCCCn1c(-c2ccc(Br)cc2)nc(-c2ccc(Br)cc2)c1-c1ccc(Br)cc1 [4,5-bis(4-bromophenyl)-2-(4-bromophenyl)-1-hexyl-1H-imidazole]
highest inhibition activity: Candida albicans | Escherichia coli | Pseudomonas aeruginosa | Staphylococcus aureus
